Laboratory results as given in patent US6818656B2, “Method and composition for treatment of irritable bowel disease” (University of Florida, priority 2001, dated 2004).
Where two headings read alike, the source gives them in different places.

What was measured:
[1] = test system: castor oil-induced diarrhea; conditions: cited from earlier work; for activity in castor oil-induced diarrhea model (in words): rodent
[2] = cited from earlier work
[3] = compared with DEHSPM; cited from earlier work
diarrhea = conditions: animal models and clinic; cited from earlier work
[4] = test system: stress-induced fecal output; test: Psychological stress-induced (water avoidance) IBS model, SC administration; assay type: in vivo; conditions: for mortality of rats after drug administration: ~24 h post-dosing
Description: (§1) For drug preparation and administration, the compounds were put into solution with sterile normal saline and sonicated briefly, if necessary. The drugs were made up at concentrations such that the rats received the drugs PO or SC at the rate of 1 cc per kilogram. Mice received the CHX(3,4,3)-trans IP at 1 cc per 100 grams. The solutions were made fresh the day of the study. Control animals received an equivalent amount of saline PO or SC.
Animal care and experimental procedures were approved by the Institutional Animal Care and Use Committee. Male Sprague-Dawley rats (250-350 g, Harlan Sprague-Dawley, Indianapolis, Ind.) were housed in polycarbonate cages in a temperature- and humidity-controlled room with a 12-hour light/dark cycle. The experiments were performed at the same time of the day to decrease diurnal variability. A typical experiment involved 20 rats: 5 saline-treated controls and 5 pretreated with polyamine analogues at each of three doses as either a SC injection or a PO gavage. The rats in the SC studies and in one set of experiments involving PO administration were allowed ad libitum access to a standard rodent diet and tap water until the morning of the experiment. Stress was initiated 30 minutes post drug as described below. In another set of experiments involving PO administration, the animals were fasted overnight but were allowed free access to water. […] In a final experiment, non-stressed control rats were injected with saline SC and housed in individual polycarbonate cages. The fecal output (number of pellets) of the stressed and unstressed animals was recorded at 30-min intervals for a 6-h period, during which they received no food or water.
(§2) To initiate the stress, water was added to each cage to a depth of at least 4.5 cm, i.e., within 0.5 cm of the top of the Pyrex dish. To avoid contact with water, the rats stand on the glass dish for the 6 h of the study. Stool output was expressed as the total number of fecal pellets excreted over the 6-h collection period. Percent reduction was calculated by dividing the mean value from the treated animals (T) by the mean value from the control animals (C), subtracting the resulting quotient from 1.0, and multiplying by 100 [i.e., (1.0−T/C)×100].
(§3) A one-tailed t-test assuming unequal variance was performed on the stool output data of the treated vs control (0 mg/kg) animals for each compound. A value of P<0.05 was considered significant.
The psychological stress-induced IBS model involves subjecting the rats to an aversive stimulus (water) and observing the increase in fecal output over a period of time. […] Control rats received an equivalent amount of saline SC.

[5] = test system: stress-induced fecal output; test: Psychological stress-induced (water avoidance) IBS model, PO administration by gavage; assay type: in vivo, rat; conditions: for oral activity against stress-induced fecal output (in words): PO gavage, non-fasted rats, 11.6-115.6 μmol/kg
Description: as §1
Animal care and experimental procedures were approved by the Institutional Animal Care and Use Committee. Male Sprague-Dawley rats (250-350 g, Harlan Sprague-Dawley, Indianapolis, Ind.) were housed in polycarbonate cages in a temperature- and humidity-controlled room with a 12-hour light/dark cycle. The experiments were performed at the same time of the day to decrease diurnal variability. A typical experiment involved 20 rats: 5 saline-treated controls and 5 pretreated with polyamine analogues at each of three doses as either a SC injection or a PO gavage. The rats in the SC studies and in one set of experiments involving PO administration were allowed ad libitum access to a standard rodent diet and tap water until the morning of the experiment. Stress was initiated 30 minutes post drug as described below. In another set of experiments involving PO administration, the animals were fasted overnight but were allowed free access to water. The animals were then stressed from ½ h to 2 h post-drug (data not shown). In a final experiment, non-stressed control rats were injected with saline SC and housed in individual polycarbonate cages. The fecal output (number of pellets) of the stressed and unstressed animals was recorded at 30-min intervals for a 6-h period, during which they received no food or water.
as §2, with “Once the drug had been administered, the animals were housed individually in polycarbonate cages containing a clear 70×50 mm Pyrex crystallization dish (Fisher, Pittsburgh, Pa.) inverted in the center and held in place with vacuum grease. To initiate” for “To initiate”
as §3
Because an orally active compound would be desirable for the treatment of IBS, selected analogues utilizing oral administration in the same model were assessed. In the initial studies animals were utilized that had been fasted overnight. Rodents were then given the drug of interest PO by gavage and stressed ½ h, 1 h, or 2 h post-drug. Unfortunately, because of the low baseline stool output in fasted control rats, the reductions in fecal output observed upon drug administration cannot be reported with any confidence (data not shown). Thereafter, only non-fasted animals were employed and were given the agents by gavage at doses of 11.6, 23.2, 57.8, or 115.6:mol/kg 30 minutes before initiating the stress. […] At doses of 11.6 and 23.2:mol/kg, CHX(3,4,3)-trans reduced stooling by about 80% (P=0.001 and <0.001, respectively). DEHSPM was effective at a dose of […]:mol/kg (40% diminution of fecal output; P<0.01), and DE(5,4,5) was active at doses of 23.2 and 57.8:mol/kg (55 and 73% reductions in fecal output, respectively; P<0.001 for both doses).

[6] = Acute toxicity assessment, single intraperitoneal injection; assay type: in vivo; conditions: toxic doses, mice
Description: For the acute toxicity assessment the CHX(3,4,3)-trans was administered to female CD-1 mice (Charles River, Wilmington, Mass.) as a single intraperitoneal (IP) injection. The animals were carefully observed post-dosing and were scored 2 h after administration of the drug.
as §1

[7] = test system: stress-induced fecal output; test: Psychological stress-induced (water avoidance) IBS model, SC administration; assay type: in vivo; conditions: 57.8 μmol/kg SC; experiment stopped after 2 h, results after 2 h
[8] = mice; N-de-ethylated metabolite of DEHSPM; cited from earlier work
[9] = dog; relative to 2-3 weeks in mice; cited from earlier work
[10] = test system: constipation-predominant IBS; conditions: eight patients, 16 mg three times a week, eight weeks; cited from earlier work
[11] = dogs, 4.3 mg/kg/day for 14 days or 2.15 mg/kg/d for 28 days
[12] = 2.3 μmol/kg SC, stress 30 min post drug, 6-h collection
[13] = 11.6 μmol/kg SC, 6-h collection
[14] = 57.8 μmol/kg SC, 6-h collection
[15] = 57.8 μmol/kg SC, listed as DBSPM
[16] = Rattus norvegicus, sc, 2 h, read-out: % Reduction

SMILES: CCNCC[C@@H](O)CNCCCCNC[C@H](O)CCNCC [(HO)2DEHSPM, (3R, 12R)-N^1,N^14-diethyl-3,12-dihydroxyhomospermine]
- activity in castor oil-induced diarrhea model (in words) [1]: considerably decreased stool output
- onset of exocrine pancreatic insufficiency post-final dose [2, 11]: approximately 40 days
- pancreatic toxicity [2, 11]: exocrine pancreatic insufficiency developed
- induction of cardiac bigeminies ([2]; treated dogs): minimal
- residence time in most mouse tissues [3]: shorter than that of DEHSPM
- antidiarrheal activity (in words) (diarrhea): as effective an antidiarrheal as DEHSPM

SMILES: CCNCCCNCCCNCCCNCC [Compound 1, N^1,N^11-diethylnorspermine]
- Stool Output [4, 12]: 17.4 ± 5.1 number of fecal pellets
- Stool Output [4, 13]: 15.2 ± 4.5 number of fecal pellets
- Stool Output [4, 14]: 13.4 ± 5.9 number of fecal pellets
- activity at diminishing stress-induced fecal output (in words) ([4]; SC administration to stressed rats, listed as DENSPM): completely ineffective
- oral activity against stress-induced fecal output (in words) [5]: only CHX(3,4,3)-trans, DEHSPM, and DE(5,4,5) showed any activity at all
- activity in castor oil-induced diarrhea model (in words) ([1]; listed as DENSPM): ineffective in reducing stooling

SMILES: CCNCCCNCCCCNCCCNCC [Compound 3, N^1,N^12 diethylspermine]
- Stool Output ([4]; 23.2 μmol/kg SC, 6-h collection): 12.5 ± 2.9 number of fecal pellets
- Stool Output ([4]; 35.4 μmol/kg SC, 6-h collection): 9.0 ± 6.3 number of fecal pellets
- Stool Output ([4]; 61 μmol/kg SC, 6-h collection): 2.8 ± 2.7 number of fecal pellets
- inhibition in vivo at 23.2 µmol/kg ([4]; Rattus norvegicus, 23.2 μmol/kg SC, vs stressed controls, 6 h, read-out: % Reduction): 35%
- inhibition in vivo at 35.4 µmol/kg ([4]; Rattus norvegicus, 35.4 μmol/kg SC, vs stressed controls, 6 h, read-out: % Reduction): 53%
- inhibition in vivo at 61 µmol/kg ([4]; Rattus norvegicus, 61 μmol/kg SC, vs stressed controls, 6 h, read-out: % Reduction): 90%
- oral activity against stress-induced fecal output (in words) [5]: only CHX(3,4,3)-trans, DEHSPM, and DE(5,4,5) showed any activity at all
- signs of acute toxicity in mice [6]: generalized depression with respiratory failure

SMILES: CCCCNCCCNCCCCNCCCNCCCC [Compound 5]
- Stool Output [4, 12]: 14.0 ± 4.8 number of fecal pellets
- toxic effects observed in stressed rats ([4]; 11.6 μmol/kg SC): ^eDue to severe CNS toxicity, the experiment was stopped after 2 h; the results after 2 h are reported.
- Stool Output ([4]; 11.6 μmol/kg SC, experiment stopped after 2 h, results after 2 h): 0 ± 0 number of fecal pellets
- % Reduction ([4]; 11.6 μmol/kg SC, experiment stopped after 2 h, results after 2 h, listed as DBSPM): completely eliminated fecal output
- toxic effects observed in stressed rats ([4]; 11.6 μmol/kg SC, listed as DBSPM): severe neurotoxicity
- toxic effects observed in stressed rats ([4]; 57.8 μmol/kg SC): ^eDue to severe CNS toxicity, the experiment was stopped after 2 h; the results after 2 h are reported.
- mortality of rats after drug administration ([4]; 57.8 μmol/kg SC): ^fAll rats in this group died ˜24 h after drug administration.
- mortality of rats after drug administration [4, 15]: died within ˜24 h post-dosing
- toxic effects observed in stressed rats [4, 15]: severe neurotoxicity
- inhibition in vivo at 11.6 µmol/kg [4, 16]: 100%
- inhibition in vivo at 57.8 µmol/kg [4, 16]: 100%
- inhibition in vivo at 2.3 µmol/kg ([4]; Rattus norvegicus, 2.3 μmol/kg SC, vs stressed controls, 6 h, read-out: % Reduction): 39%
- Stool Output [7]: 0 ± 0 number of fecal pellets
- neurotoxicity in rats at subtherapeutic doses ([1]; doses equivalent to a 5 mg/kg dose of DEHSPM): Signs of neurotoxicity

SMILES: CCNCCCCNCCCCNCCCCNCC [Compound 13, N^1,N^14-diethylhomospermine]
- Stool Output [4, 13]: 2.1 ± 2.1 number of fecal pellets
- Stool Output [4, 14]: 0 ± 0 number of fecal pellets
- inhibition in vivo at 11.6 µmol/kg ([4]; Rattus norvegicus, 11.6 μmol/kg SC, vs stressed controls, 6 h, read-out: % Reduction): 89%
- inhibition in vivo at 57.8 µmol/kg ([4]; Rattus norvegicus, 57.8 μmol/kg SC, vs stressed controls, 6 h, read-out: % Reduction): 100%
- Stool Output ([5]; 115.6 μmol/kg PO, 6-hr collection): 10.6 ± 1.8 number of fecal pellets
- % Reduction ([5]; 115.6 μmol/kg PO, vs stressed controls, 6 hr): 40%
- diminution of fecal output ([5]; 15.6 :mol/kg PO): 40%
- signs of acute toxicity in mice [6]: generalized depression with respiratory failure
- time at which arrhythmia was apparent in 6-lead EKG ([2]; SC, dogs, 2 mg/kg daily): as early as three days
- cardiac effect ([2]; SC, three dogs, 2 mg/kg daily for 11-17 days): ventricular bigeminies
- antidiarrheal activity (in words) (diarrhea): very potent antidiarrheal

SMILES: NCCCCNCCCCNCCCCN [HSPM, homospermine]
- half-life [8]: 2-3 weeks
- half-life [9]: even longer

SMILES: C=C1CCC2(O)C3Cc4ccc(OC5OC(C(=O)O)C(O)C(O)C5O)c5c4C2(CCN3CC2CC2)C1O5 (stereo not shown) [Nalmefene glucuronide]
- abdominal pain or bloating [10]: did not reduce abdominal pain or bloating
- transit time and stool frequency [10]: decreased transit time and increased stool frequency
